Experimental data as given in ChEMBL document CHEMBL3885861, “Open TG-GATES”.

Organism: Rattus norvegicus
Experiment: Open TG-GATES - Regimen: Single
Type: toxicity, organism-based, Sprague-Dawley
Parameters: regimen Single, gender Male, age 6 weeks
Conditions: in vivo, iv, route intravenous injection; for KIDNEY_L / KIDNEY_R / KIDNEY_TOTAL: tissue Kidney; for LIVER: tissue Liver; for ALP / ALT / BUN / CRE / DBIL / GLC / IP / K / LDH / PL / RALB / TBIL / TC / TG / TP / gamma-GTP / AST / Na: tissue Plasma
[1] = 30 mg/kg, 3 h, tissue Blood, dose level Middle
[2] = 30 mg/kg, 3 h, dose level Middle
[3] = 30 mg/kg, 6 h, tissue Blood, dose level Middle
[4] = 30 mg/kg, 6 h, dose level Middle
[5] = 30 mg/kg, 9 h, dose level Middle
[6] = 30 mg/kg, 9 h, tissue Blood, dose level Middle
[7] = 30 mg/kg, 24 h, dose level Middle
[8] = 30 mg/kg, 24 h, tissue Blood, dose level Middle
[9] = 100 mg/kg, 3 h, tissue Blood, dose level High
[10] = 100 mg/kg, 3 h, dose level High
[11] = 100 mg/kg, 6 h, dose level High
[12] = 100 mg/kg, 6 h, tissue Blood, dose level High
[13] = 100 mg/kg, 9 h, dose level High
[14] = 100 mg/kg, 9 h, tissue Blood, dose level High
[15] = 100 mg/kg, 24 h, dose level High
[16] = 100 mg/kg, 24 h, tissue Blood, dose level High

CARBOPLATIN
APTT [1]: 23.3 s
Bas [1]: 0%
Eos [1]: 1%
Fbg [1]: 273.2 mg/dL
Hb [1]: 13 g/dL
Ht [1]: 40.3%
Lym [1]: 81.8%
MCV [1]: 63.6 fL
Mono [1]: 2.4%
PT [1]: 15.6 s
Plat [1]: 123.8 x10_4/uL
RBC [1]: 633.4 x10_4/ul
Ret [1]: 5.6%
WBC [1]: 77.3 x10_2/uL
KIDNEY_L [2]: 0.9 g
KIDNEY_R [2]: 0.9 g
KIDNEY_TOTAL [2]: 1.9 g
LIVER [2]: 9.5 g
ALP [2]: 1595 IU/L
ALT [2]: 41.4 IU/L
BUN [2]: 11 mg/dL
CRE [2]: 0.2 mg/dL
DBIL [2]: 0 mg/dL
GLC [2]: 175 mg/dL
IP [2]: 8.6 mg/dL
K [2]: 4 meq/L
LDH [2]: 183.4 IU/L
PL [2]: 126.6 mg/dL
RALB [2]: 3 g/dL
TBIL [2]: 0.014 mg/dL
TC [2]: 67 mg/dL
TG [2]: 75 mg/dL
TP [2]: 5.4 g/dL
gamma-GTP [2]: 1.2 IU/L
APTT [3]: 22.6 s
Bas [3]: 0%
Eos [3]: 0.8%
Fbg [3]: 273.4 mg/dL
Hb [3]: 12.8 g/dL
Ht [3]: 39.7%
Lym [3]: 77.4%
MCHC [3]: 32.2%
MCV [3]: 63.8 fL
Mono [3]: 4%
Neu [3]: 16.6%
PT [3]: 15.9 s
Plat [3]: 120 x10_4/uL
RBC [3]: 623.2 x10_4/ul
Ret [3]: 6.3%
WBC [3]: 102.3 x10_2/uL
KIDNEY_L [4]: 0.9 g
KIDNEY_R [4]: 0.9 g
KIDNEY_TOTAL [4]: 1.8 g
LIVER [4]: 8.7 g
ALP [4]: 1276.8 IU/L
ALT [4]: 42 IU/L
AST [4]: 77.8 IU/L
CRE [4]: 0.2 mg/dL
DBIL [4]: 0 mg/dL
GLC [4]: 174.6 mg/dL
IP [4]: 9.6 mg/dL
K [4]: 4.4 meq/L
Na [4]: 139.4 meq/L
PL [4]: 126 mg/dL
RALB [4]: 2.9 g/dL
TBIL [4]: 0.012 mg/dL
TC [4]: 73.4 mg/dL
TG [4]: 68.6 mg/dL
TP [4]: 5.3 g/dL
gamma-GTP [4]: 1 IU/L
TERMINAL_BW [5]: 197.2 g
APTT [6]: 24.3 s
Bas [6]: 0%
Eos [6]: 0.6%
Fbg [6]: 280.2 mg/dL
Hb [6]: 12.8 g/dL
Ht [6]: 39.6%
Lym [6]: 72.2%
MCHC [6]: 32.4%
MCV [6]: 62 fL
Mono [6]: 2.4%
Neu [6]: 24%
PT [6]: 15.9 s
Plat [6]: 119 x10_4/uL
RBC [6]: 638.6 x10_4/ul
Ret [6]: 5.9%
WBC [6]: 68.8 x10_2/uL
KIDNEY_L [5]: 0.9 g
KIDNEY_R [5]: 1 g
KIDNEY_TOTAL [5]: 1.9 g
LIVER [5]: 7.9 g
ALP [5]: 1295.4 IU/L
ALT [5]: 38.8 IU/L
AST [5]: 81 IU/L
BUN [5]: 10 mg/dL
CRE [5]: 0.1 mg/dL
DBIL [5]: 0 mg/dL
GLC [5]: 173.6 mg/dL
IP [5]: 9.7 mg/dL
K [5]: 4.3 meq/L
LDH [5]: 182.2 IU/L
Na [5]: 139.6 meq/L
PL [5]: 118.8 mg/dL
RALB [5]: 2.9 g/dL
TBIL [5]: 0.014 mg/dL
TC [5]: 63 mg/dL
TG [5]: 55 mg/dL
TP [5]: 5.4 g/dL
gamma-GTP [5]: 1.2 IU/L
TERMINAL_BW [7]: 208.3 g
APTT [8]: 23 s
Bas [8]: 0%
Eos [8]: 0.8%
Fbg [8]: 295.6 mg/dL
Hb [8]: 12.9 g/dL
Ht [8]: 39.9%
Lym [8]: 88.4%
MCHC [8]: 32.2%
Mono [8]: 3.4%
Neu [8]: 6.6%
PT [8]: 16.1 s
Plat [8]: 125 x10_4/uL
RBC [8]: 639.8 x10_4/ul
Ret [8]: 4.5%
WBC [8]: 72.2 x10_2/uL
KIDNEY_L [7]: 0.9 g
KIDNEY_R [7]: 1 g
KIDNEY_TOTAL [7]: 1.9 g
LIVER [7]: 9.3 g
ALP [7]: 1504.2 IU/L
ALT [7]: 44.8 IU/L
AST [7]: 72.8 IU/L
CRE [7]: 0.2 mg/dL
DBIL [7]: 0.002 mg/dL
GLC [7]: 179.6 mg/dL
IP [7]: 8.1 mg/dL
K [7]: 4.3 meq/L
LDH [7]: 211.2 IU/L
Na [7]: 139.8 meq/L
PL [7]: 126.6 mg/dL
RALB [7]: 3 g/dL
TBIL [7]: 0.02 mg/dL
TC [7]: 70.4 mg/dL
TG [7]: 60.4 mg/dL
TP [7]: 5.5 g/dL
gamma-GTP [7]: 1.2 IU/L
APTT [9]: 22.8 s
Bas [9]: 0%
Eos [9]: 0.6%
Fbg [9]: 275 mg/dL
MCHC [9]: 32.4%
MCV [9]: 64.2 fL
Mono [9]: 2.8%
Neu [9]: 17.2%
PT [9]: 15.7 s
Plat [9]: 123.5 x10_4/uL
RBC [9]: 630.8 x10_4/ul
Ret [9]: 6.4%
WBC [9]: 81.4 x10_2/uL
KIDNEY_L [10]: 0.9 g
KIDNEY_R [10]: 0.9 g
KIDNEY_TOTAL [10]: 1.9 g
LIVER [10]: 9.2 g
ALP [10]: 1630.8 IU/L
ALT [10]: 45 IU/L
BUN [10]: 12 mg/dL
CRE [10]: 0.2 mg/dL
DBIL [10]: 0 mg/dL
GLC [10]: 170.6 mg/dL
IP [10]: 9.1 mg/dL
K [10]: 4.2 meq/L
LDH [10]: 173.8 IU/L
PL [10]: 129 mg/dL
RALB [10]: 3 g/dL
TBIL [10]: 0.014 mg/dL
TC [10]: 69.8 mg/dL
TG [10]: 70.8 mg/dL
TP [10]: 5.3 g/dL
gamma-GTP [10]: 1.2 IU/L
TERMINAL_BW [11]: 200.2 g
APTT [12]: 24.4 s
Bas [12]: 0%
Eos [12]: 0.8%
Fbg [12]: 286.8 mg/dL
Ht [12]: 41.1%
Lym [12]: 76%
MCH [12]: 20 pg
MCHC [12]: 32.2%
MCV [12]: 62.2 fL
Mono [12]: 6.4%
Plat [12]: 125.8 x10_4/uL
RBC [12]: 663.8 x10_4/ul
Ret [12]: 5.2%
WBC [12]: 91 x10_2/uL
KIDNEY_L [11]: 1 g
KIDNEY_R [11]: 1 g
KIDNEY_TOTAL [11]: 1.9 g
LIVER [11]: 8.2 g
ALP [11]: 1531.2 IU/L
ALT [11]: 40.4 IU/L
AST [11]: 84.4 IU/L
BUN [11]: 10.8 mg/dL
CRE [11]: 0.2 mg/dL
DBIL [11]: 0 mg/dL
GLC [11]: 176.6 mg/dL
IP [11]: 9.5 mg/dL
K [11]: 4.2 meq/L
LDH [11]: 177.8 IU/L
Na [11]: 140 meq/L
PL [11]: 109.6 mg/dL
RALB [11]: 2.9 g/dL
TBIL [11]: 0.02 mg/dL
TC [11]: 61.8 mg/dL
TG [11]: 37.4 mg/dL
TP [11]: 5.3 g/dL
gamma-GTP [11]: 1.2 IU/L
TERMINAL_BW [13]: 204.6 g
APTT [14]: 24.9 s
Bas [14]: 0%
Eos [14]: 0.8%
Fbg [14]: 299.4 mg/dL
Ht [14]: 40.5%
Lym [14]: 73.8%
MCHC [14]: 32.4%
MCV [14]: 62.8 fL
Mono [14]: 3.4%
Neu [14]: 21.2%
PT [14]: 15.9 s
Plat [14]: 136.6 x10_4/uL
RBC [14]: 645.2 x10_4/ul
Ret [14]: 6.1%
WBC [14]: 69 x10_2/uL
KIDNEY_L [13]: 0.9 g
KIDNEY_R [13]: 1 g
KIDNEY_TOTAL [13]: 1.9 g
LIVER [13]: 8.4 g
ALP [13]: 1146.6 IU/L
ALT [13]: 34.4 IU/L
AST [13]: 72.8 IU/L
CRE [13]: 0.2 mg/dL
DBIL [13]: 0 mg/dL
GLC [13]: 174.8 mg/dL
IP [13]: 9.9 mg/dL
K [13]: 4.5 meq/L
LDH [13]: 172.4 IU/L
Na [13]: 139.4 meq/L
RALB [13]: 2.9 g/dL
TBIL [13]: 0.022 mg/dL
TC [13]: 69.2 mg/dL
TG [13]: 54.4 mg/dL
TP [13]: 5.2 g/dL
gamma-GTP [13]: 1.6 IU/L
TERMINAL_BW [15]: 203.7 g
APTT [16]: 23.6 s
Bas [16]: 0%
Eos [16]: 0.2%
Fbg [16]: 306.2 mg/dL
Hb [16]: 12.9 g/dL
Ht [16]: 40.2%
Lym [16]: 82.6%
MCHC [16]: 32.2%
Mono [16]: 4%
Neu [16]: 12%
PT [16]: 16.2 s
Plat [16]: 123.1 x10_4/uL
RBC [16]: 641.4 x10_4/ul
Ret [16]: 2.7%
WBC [16]: 69.6 x10_2/uL
KIDNEY_L [15]: 0.9 g
KIDNEY_R [15]: 1 g
KIDNEY_TOTAL [15]: 1.9 g
LIVER [15]: 8.8 g
ALP [15]: 1486.6 IU/L
ALT [15]: 41.2 IU/L
AST [15]: 76.8 IU/L
CRE [15]: 0.2 mg/dL
DBIL [15]: 0.002 mg/dL
GLC [15]: 179.2 mg/dL
IP [15]: 8.4 mg/dL
K [15]: 4.3 meq/L
LDH [15]: 176.8 IU/L
PL [15]: 135.6 mg/dL
RALB [15]: 3.1 g/dL
TBIL [15]: 0.022 mg/dL
TC [15]: 78.6 mg/dL
TG [15]: 51.2 mg/dL
TP [15]: 5.6 g/dL
gamma-GTP [15]: 1.2 IU/L
